This note sets out measurements from patent publication US9469615B2, “Quinoxalines and AZA-quinoxalines as CRTH2 receptor modulators” (Merck Sharp & Dohme Corp., priority 2010, dated 2016).

In this test the target is T1, hCRTH2 (Homo sapiens, UniProt Q9Y5Y4).
T1 construct: expressed in transfected cells; host or cells: HEK (human embryonic kidney) cells expressing hCRTH2; membrane preparation
T1 sequence (Q9Y5Y4 1-395): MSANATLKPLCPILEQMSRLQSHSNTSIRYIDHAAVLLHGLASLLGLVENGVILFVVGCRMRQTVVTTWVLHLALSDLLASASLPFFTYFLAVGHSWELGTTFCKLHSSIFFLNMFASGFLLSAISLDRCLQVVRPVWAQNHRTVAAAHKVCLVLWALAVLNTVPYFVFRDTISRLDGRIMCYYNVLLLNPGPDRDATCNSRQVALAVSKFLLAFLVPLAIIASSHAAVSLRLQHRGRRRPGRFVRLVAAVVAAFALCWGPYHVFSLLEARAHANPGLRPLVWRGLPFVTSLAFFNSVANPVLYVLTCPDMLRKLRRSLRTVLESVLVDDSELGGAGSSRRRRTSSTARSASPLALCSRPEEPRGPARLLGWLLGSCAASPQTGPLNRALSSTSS
Put plainly: Radioligand binding assay ([3H]PGD2 competition, HEK-hCRTH2 membranes). As for the experimental part:
Biological Assays Radioligand Binding Assay.
Radioligand binding assays were performed at room temperature in 50 mM Tris-HCl pH 7.4, 1 mM EDTA containing 2 mM MnCl2 and 3.0 nM [^3H]PGD2 (New England Nuclear, Boston, Mass.) (171 Ci mmol^−1), in a final volume of 0.2 mL. Competing ligands were diluted in dimethylsulfoxide (Me2SO) that was kept constant at 1% (v/v) of the final incubation volume. The reaction was initiated by the addition of 8-20 μg of membrane protein prepared from a human embryonic kidney (HEK)-hCRTH2 cell line. Total and non-specific binding were determined in the absence and the presence of 10 μM PGD2, respectively. […] The reaction was routinely conducted for 60 min at room temperature and terminated by rapid filtration through prewetted (0.3% polyethyleneimine) 96-well printed Filtermate™ (Wallac) using a Tomtec® harvester (Hamden, Conn.). After washing with cold buffer, the filter was dried for 2 minutes in microwave, and Meltilex Scintillator sheet (Wallac) was melted on for 2 min. The radioactivity was measured with Betaplate model 1205 (Wallac).

Setting [1] is: [3H]PGD2 binding, rated A-E (Table A).

For orientation: Ki means the dissociation constant of the complex between target and ligand, obtained from inhibition or displacement. A high value points to weaker binding. `Cc1ccc(N2CCN(C(=O)c3ccc4nc(-c5ccc(Cl)cc5)c(CCCCC(=O)O)nc4c3)CC2)cc1` [compound 665, 5-(3-(4-chlorophenyl)-7-(4-(p-tolyl)piperazine-1-carbonyl)quinoxalin-2-yl)pentanoic acid] returned an inhibition constant Ki ([3H]PGD2 competition, Table B) of 2.1 to 20 nM.

As for `Cn1ccnc1C1CCCCN1C(=O)c1ccc2nc(-c3ccc(Cl)cc3)c(CCCCC(=O)O)nc2c1` (centres unmarked) [compound 651, 5-(3-(4-chlorophenyl)-7-(2-(1-methyl-1H-imidazol-2-yl)piperidine-1-carbonyl)quinoxalin-2-yl)pentanoic acid], under “[3H]PGD2 competition, Table B”, the Ki lay within 20.1 to 200 nM.

For the setting “[3H]PGD2 competition, Table B”, `CN1CCN(C(=O)c2ccc3nc(-c4ccc(Cl)cc4)c(CCCCC(=O)O)nc3c2)CC1c1ccccc1` (centres unmarked) [compound 674, 5-(3-(4-chlorophenyl)-7-(4-methyl-3-phenylpiperazine-1-carbonyl)quinoxalin-2-yl)pentanoic acid] gave a Ki of 2.1 to 20 nM.

In the case of `O=C(O)CCCCc1nc2cc(C(=O)N3CC=C(c4ccccc4)CC3)ccc2nc1-c1ccc(Cl)cc1` [16AJ, 3-(4-chlorophenyl)-7-[(3,6-dihydro-4-phenyl-1(2H)-pyridinyl)carbonyl]-2-quinoxalinepentanoic acid], the Ki under setting [1] lay in the range of 0.1 to 2 nM.

Turning to `C[C@@H](NC(=O)c1ccc2nc(-c3ccccc3)c(CCCC(F)(F)C(=O)O)nc2c1)c1ccc(F)cc1` [compound 37, (R)-2,2-difluoro-5-(7-((1-(4-fluorophenyl)ethyl)carbamoyl)-3-phenylquinoxalin-2-yl)pentanoic acid], under setting [1], the inhibition constant (Ki) fell in the range of 20.1 to 200 nM.

In the case of `O=C(O)CCCCc1nc2cc(C(=O)N3CCN(c4ccccc4)CC3)ccc2nc1-c1ccccc1` [15AN, 5-{3-phenyl-7-[(4-phenylpiperazin-1-yl)carbonyl]quinoxalin-2-yl}pentanoic acid], the Ki under setting [1] is 2.1 to 20 nM.

`C[C@@H](CCc1nc2cc(C(=O)N[C@H](C)c3ccc(F)cc3)ccc2nc1-c1ccc(F)cc1)CC(=O)O` [compound 438, (S)-5-(3-(4-fluorophenyl)-7-(((R)-1-(4-fluorophenyl)ethyl)carbamoyl)quinoxalin-2-yl)-3-methylpentanoic acid] yielded an inhibition constant (Ki) ([3H]PGD2 binding, values in text) of 4.2 nM and an inhibition constant Ki ([3H]PGD2 competition, Table B) of 2.1 to 20 nM.

In the case of `CC(CCCc1nc2cc(C(=O)N[C@H](C)c3ccc(Cl)cc3)ccc2nc1-c1ccc(F)cc1)C(=O)O` (stereo partly drawn) [compound 427, 5-(7-(((R)-1-(4-chlorophenyl)ethyl)carbamoyl)-3-(4-fluorophenyl)quinoxalin-2-yl)-2-methylpentanoic acid], under “[3H]PGD2 competition, Table B”, the Ki fell in the range of 2.1 to 20 nM.

`C[C@H]1CN(c2ccccc2)CCN1C(=O)c1ccc2nc(-c3ccccc3)c(CCCCC(=O)O)nc2c1` [compound 549, (S)-5-(7-(2-methyl-4-phenylpiperazine-l-carbonyl)-3-phenylquinoxalin-2-yl)pentanoic acid] had a Ki ([3H]PGD2 competition, Table B) of 2.1 to 20 nM.

Regarding `O=C(O)CCCCc1nc2cc(C(=O)N[C@H]3COc4ccccc43)ccc2nc1-c1ccccc1` [compound 574, (R)-5-(7-((2,3-dihydrobenzofuran-3-yl)carbamoyl)-3-phenylquinoxalin-2-yl)pentanoic acid], the inhibition constant (Ki) ([3H]PGD2 competition, Table B) fell in the range of 2.1 to 20 nM.

`COc1ccc(N2CCN(C(=O)c3ccc4nc(-c5ccc(Cl)cc5)c(CCCCC(=O)O)nc4c3)CC2)cc1` [compound 622, 5-(3-(4-chlorophenyl)-7-(4-(4-methoxyphenyl)piperazine-1-carbonyl)quinoxalin-2-yl)pentanoic acid] registered a Ki ([3H]PGD2 competition, Table B) of 2.1 to 20 nM.

The compound `C[C@@H](c1ccc(Cl)cc1)N(C)C(=O)c1ccc2nc(-c3ccccc3)c(CCCCC(=O)O)nc2c1` [compound 239, 7-[[[1(S)-(4-chlorophenyl)ethyl]methylamino]carbonyl]-3-phenyl-2-quinoxalinepentanoic acid] registered an inhibition constant Ki under setting [1] of 2.1 to 20 nM.

For `CC1(C)CC(NC(=O)c2ccc3nc(-c4ccccc4)c(CCCCC(=O)O)nc3c2)c2ccccc2O1` (centres unmarked) [compound 295, 5-(7((2,2-dimethylchroman-4-yl)carbamoyl)-3-phenylquinoxalin-2-yl)pentanoic acid], for the setting “[3H]PGD2 competition, Table B”, the Ki is 2.1 to 20 nM.

Consider `O=C(O)CCCCc1nc2cc(C(=O)N3CCC(n4cncn4)CC3)ccc2nc1-c1ccc(Cl)cc1` [compound 341, 5-(7-(4-(1H-1,2,4-triazol-yl)piperidine-1-carbonyl)-3-(4-chlorophenyl)quinoxalin-2-yl)pentanoic acid], for which, for the setting “[3H]PGD2 competition, Table B”, the inhibition constant Ki fell in the range of 2.1 to 20 nM.

Consider `C[C@@H](NC(=O)c1ccc2nc(-c3ccc(F)cc3)c(CCCC(F)(F)C(=O)O)nc2c1)c1ccc(F)cc1` [compound 487, (R)-2,2-difluoro-5-(3-(4-fluorophenyl)-7-((1-(4-fluorophenyl)ethyl)carbamoyl)quinoxalin-2-yl) pentanoic acid], for which, under “[3H]PGD2 competition, Table B”, the Ki lay within 20.1 to 200 nM.

For the compound `O=C(O)CCCCc1nc2cc(C(=O)N[C@@H](c3ccccc3)C(F)(F)F)ccc2nc1-c1ccc(Cl)cc1` [16i, 3-(4-chlorophenyl)-7-[[(2,2,2-trifluoro-1(s)-phenylethyl)amino]carbonyl]-2-quinoxalinepentanoic acid], under setting [1], the Ki lay in the range of 0.1 to 2 nM.

The compound `C[C@@H]1CN(c2ccccc2)CCN1C(=O)c1ccc2nc(-c3ccccc3)c(NCCCC(=O)O)nc2c1` [44N, (R)-4-((7-(2-methyl-4-phenylpiperazine-1-carbonyl)-3-phenylquinoxalin-2-yl)amino)butanoic acid] registered a Ki under setting [1] of 2.1 to 20 nM.

With `O=C(O)CCCCc1nc2cc(C(=O)N3C[C@@H]4C[C@H]3CN4c3ccc(F)cc3)ccc2nc1-c1ccc(Cl)cc1` [compound 680, 5-(3-(4-chlorophenyl)-7-((1S,4S)-5-(4-fluorophenyl)-2,5-diazabicyclo[2.2.1]heptane-2-carbonyl)quinoxalin-2-yl)pentanoic acid], the Ki ([3H]PGD2 competition, Table B) lay within 2.1 to 20 nM.

Where the note is “[3H]PGD2 competition, Table B”, `CC(CCCc1nc2cc(C(=O)N[C@@H]3C[C@H]3c3ccccc3)ccc2nc1-c1ccccc1)C(=O)O` (stereo partly drawn) [compound 463, 2-methyl-5-(3-phenyl-7-(((1R,2S)-2-phenylcyclopropyl)carbamoyl)quinoxalin-2-yl) pentanoic acid] registered an inhibition constant Ki of 2.1 to 20 nM.

Regarding `C[C@@H](CCc1nc2cc(C(=O)N[C@H]3CCCc4ccccc43)ccc2nc1-c1ccccc1)CC(=O)O` [compound 286, (S)-3-methyl-5-(3-phenyl-7-(((S)-1,2,3,4-tetrahydronaphthalen-1-yl)carbamoyl)quinoxalin-2-yl)pentanoic acid], the inhibitory constant (Ki) ([3H]PGD2 competition, Table B) was 20.1 to 200 nM.

For `C[C@@H](NC(=O)c1ccc2nc(-c3ccc(Cl)cc3)c(CCc3cccc(CC(=O)O)c3)nc2c1)c1ccc(F)cc1` [19G, 3-[2-[3-(4-chlorophenyl)-7-[[[1(R)-(4-fluorophenyl)ethyl]amino]carbonyl]-2-quinaxalinyl]ethyl] benzeneacetic acid], under setting [1], the Ki fell in the range of 2.1 to 20 nM.

`O=C(O)CCCCc1nc2cc(C(=O)N[C@H]3CCOc4cc(F)ccc43)ccc2nc1-c1ccc(Cl)cc1` [compound 612, (S)-5-(3-(4-chlorophenyl)-7-((7-fluorochroman-4-yl)carbamoyl)quinoxalin-2-yl)pentanoic acid] returned a Ki ([3H]PGD2 competition, Table B) of 0.1 to 2 nM.

The compound `O=C(O)CCCCc1nc2cc(C(=O)N[C@H](CO)c3ccc(F)cc3)ccc2nc1-c1ccc(Cl)cc1` [compound 687, (S)-5-(3-(4-chlorophenyl)-7-((1-(4-fluorophenyl)-2-hydroxyethyl)carbamoyl)quinoxalin-2-yl) pentanoic acid] returned an inhibitory constant (Ki) ([3H]PGD2 competition, Table B) of 2.1 to 20 nM.

With `CC(CCCc1nc2cc(C(=O)N3CCC(c4ccccc4)CC3)ccc2nc1-c1ccc(Cl)cc1)C(=O)O` (stereo not drawn) [compound 162, 3-(4-chlorophenyl)-alpha-methyl-7-[(4-phenyl-1-piperidinyl)carbonyl]-2-quinoxalinepentanoic acid], the Ki under setting [1] fell in the range of 0.1 to 2 nM.

For the compound `C[C@@H](NC(=O)c1ccc2nc(-c3ccc(F)cc3)c(CCc3cccc(CC(=O)O)c3)nc2c1)c1ccc(F)cc1` [compound 195, 3-[2-[3-(4-fluorophenyl)-7-[[[1(R)-(4-fluorophenyl)ethyl]amino]carbonyl]-2-quinoxalinyl]ethyl] benzeneacetic acid], the inhibitory constant (Ki) under setting [1] fell in the range of 20.1 to 200 nM.

Turning to `O=C(O)CCCCc1nc2cc(C(=O)N3CC(c4ccccc4)C3)ccc2nc1-c1ccc(Cl)cc1` [16AF, 3-(4-chlorophenyl)-7-[(3-phenyl-1-azetidinyl)carbonyl]-2-quinoxalinepentanoic acid], the Ki under setting [1] was in the range of 0.1 to 2 nM.

For `C[C@@H](CCCc1nc2cc(C(=O)N[C@H](C)c3ccc(F)cc3)ccc2nc1-c1ccc(F)cc1)C(=O)O` [compound 484, (S)-5-(3-(4-fluorophenyl)-7-(((R)-1-(4-fluorophenyl)ethyl)carbamoyl)quinoxalin-2-yl)-2-methylpentanoic acid], for the setting “[3H]PGD2 competition, Table B”, the Ki lay within 2.1 to 20 nM.

Turning to `C[C@@H]1CN(c2ccc(F)cc2)CCN1C(=O)c1ccc2nc(-c3ccc(Cl)cc3)c(CCCCC(=O)O)nc2c1` [compound 488, (R)-5-(3-(4-chlorophenyl)-7-(4-(4-fluorophenyl)-2-methylpiperazine-1-carbonyl)quinoxalin-2-yl)pentanoic acid], the inhibition constant Ki ([3H]PGD2 competition, Table B) is 2.1 to 20 nM.
